Laboratory results: patent US12011433B2 (UNIVERSITÁ DEGLI STUDI DI BARI “ALDO MORO”, priority 2016, dated 2024)
Marks after values point to notes of the source that are not given here.

Key:
COX-2 = COX-2 (Mus musculus (Mouse), UniProt Q05769); test: COX-2 expression in LPS-treated BV2 microglial cells, western blotting; format: cell-based; conditions: LPS-stimulated BV2 cells
Procedure: (§1) Cells were then incubated for different times at 37° C. with LPS, as pro-inflammatory stimulus. Experiments included cells grown in medium alone (control).
(§2) The tissue and cell culture lysates were vortexed for 15-20 s and, then, centrifuged at 12,800×g for 20 min. The protein concentration in the supernatant was spectrophotometrically determined by Bradford's protein assay (Bradford, 1976). Protein samples were diluted with sample buffer (0.5 M Tris-HCl pH=6.8, 10% glycerol, 10% (w/v) SDS, 5% 2-mercaptoethanol, 0.05% (w/v) bromophenol blue) and then boiled for 3 min. Proteins (25 μg/lane) and prestained standards (BioRad Laboratories, Hercules, CA, USA) were loaded on 7% or 12% SDS precast polyacrylamide gels (BioRad Laboratories).
After electrophoresis, the resolved proteins were transferred from the gel to nitrocellulose membranes. A blotting buffer [20 mMTris/150 mM glycine, pH=8.0, 20% (v/v) methanol] was used for gel and membrane saturation and blotting. […]

p-IkBα = test: NF-kB activation (p-IkBα) in brain areas of LPS-treated mice, immunoblotting; format: in vivo; conditions: all tested brain areas of LPS-treated mice
Procedure: The protein concentration in the supernatant was spectrophotometrically determined by Bradford's protein assay (Bradford, 1976). […] Proteins (25 μg/lane) and prestained standards (BioRad Laboratories, Hercules, CA, USA) were loaded on 7% or 12% SDS precast polyacrylamide gels (BioRad Laboratories). After electrophoresis, the resolved proteins were transferred from the gel to nitrocellulose membranes. A blotting buffer [20 mMTris/150 mM glycine, pH=8.0, 20% (v/v) methanol] was used for gel and membrane saturation and blotting. […] Bands were visualized by chemiluminescence detection (Invitrogen, Milan, Italy). The β-actin level was used as a protein loading control. For tissue analysis, obtained bands were normalized to the level of β-actin performed for each cerebral area tested. For cell cultures the bands were normalized to the β-actin level in each experimental condition. […] VM in all the Figures) once a day for 10 days. […] On the seventh day, mice were anesthetized with tribromoethanol (250 mg/Kg, i.p.) and positioned in a stereotactic apparatus (Kopf Instruments, Tujunga, CA, USA).

COX-1 [1] = target: T1, COX-1 (Mus musculus (Mouse), UniProt P22437); test: COX-1 expression in brain regions of LPS-treated mice, immunoblotting; format: in vivo; conditions: for COX-1 expression reduction (%): LPS-treated mice, mofezolac 6 mg/kg i.p.
Procedure: Substantia nigra pars compacta (SNpc), Hippocampus, Frontal lobe and Caudate from mice brains were minced in ice-cold PBS, washed and then homogenized in a buffer containing lysis buffer (50 mM Tris pH 8, 0.02 g/mL NaCl, 0.2% SDS, 1% Triton-X, 4 U/ml aprotinin, 2 mM leupeptin, 100 mM phenylmethanesulfonyl fluoride).
as §2
(§3) After electrophoresis, the resolved proteins were transferred from the gel to nitrocellulose membranes. A blotting buffer [20 mMTris/150 mM glycine, pH=8.0, 20% (v/v) methanol] was used for gel and membrane saturation and blotting. Then, membranes were incubated in the dark with 1 μg/mL mouse monoclonal antibody (MoAb) anti-COX-1 and rabbit polyclonal Ab anti-COX-2 (1:1000) (both from AbCam, Cambridge, UK), rabbit polyclonal Ab anti p-IkB-α (1:200), mouse polyclonal Ab anti β-actin (1:500) (all from Santa Cruz Biotechnology), mouse MoAb anti-glial fibrillary acidic protein (GFAP) (1:200) and mouse mAb anti-ionized calcium-binding adapter molecule-1 (Iba-1) (1:200) (both from Merck Millipore) overnight at 4° C. The membranes were washed with 0.1% Tween 20-PBS (for 20 min, 3 times) and then incubated with the secondary antibody diluted 1:2000 for 60 min. Bands were visualized by chemiluminescence detection (Invitrogen, Milan, Italy). The β-actin level was used as a protein loading control. For tissue analysis, obtained bands were normalized to the level of β-actin performed for each cerebral area tested. For cell cultures the bands were normalized to the β-actin level in each experimental condition.
(§4) On the seventh day, mice were anesthetized with tribromoethanol (250 mg/Kg, i.p.) and positioned in a stereotactic apparatus (Kopf Instruments, Tujunga, CA, USA). […] Sterotaxic injections coordinates were: 2.3 mm dorsal/ventral, 1.0 mm lateral, and 0.5 mm anterior/posterior from the bregma.

BV2 microglial cells = test: BV2 microglial cell viability, MTT reduction assay; format: cell-based; conditions: 24 h, P6 0.5 and 1 μM, mofezolac 0.1 and 0.5 μM, alone or with LPS
Procedure: as §1
Cell viability of microglial cells was quantified using the MTT reduction assay. The cells (8×10^3/well) were grown in 96-well plates (Becton Dickinson Labware) in complete medium and treated with different concentration of COX inhibitors, in presence or absence of LPS. Untreated cells were used as a control. A PBS 1× solution of MTT (5 mg/mL) was prepared and added to the cell medium at a final concentration of 0.5 mg/mL. Cells were incubated for 4 h at 37° C. and 5% CO2 to allow the MTT metabolism. The formazan crystals formed (from MTT) into the cells were solubilized with DMSO (Sigma-Aldrich). The levels of MTT formazan were determined measuring the optical density at λ=560 nm and subtracting the background (λ=670 nm) with a Victor Multiplate Reader (Wallac). Optical density was directly correlated to cell quantity.

COX-1 [2] = target: T1, COX-1; test: COX-1 expression in LPS-treated BV2 microglial cells, western blotting; format: cell-based
Procedure: as §1, §2, §3

PGE2 = PGE2 release in brain specimens from LPS-treated mice; format: in vivo; conditions: for PGE2 release reduction (%): LPS-treated mice, mofezolac 6 mg/kg i.p.; for PGE2 release (ng/mg tissue): LPS or M+LPS treated mice
Procedure: as §4
Microglial cells were cultured in 6-well plates at a density of 3×10^6 cells/well. […] The cultures were maintained at 37° C. for 24 and 48 h in a humidified air containing a 5% CO2. PGE2 levels were determined in the supernatant using a competitive binding immunoassay (Cayman Chemical, Ann Arbor, MI, USA) following the manufacturer's instructions. Unstimulated cells were included as a control. PGE2 amount determination in the brain was performed in the tissue extracts, according to the manufacturer's instructions. The optical density was measured at λ=405-420 nm with precision microplate reader and the amount of PGE2 (ng/mL) was calculated using a PGE2 standard curve.

COX-2 protein levels (COX-2): unaffected | COX-1 expression reduction (%) (COX-1 [1]; Caudate): 95% | COX-1 expression reduction (%) (COX-1 [1]; Frontal lobe): 94% | COX-1 expression reduction (%) (COX-1 [1]; Hippocampus): 82% | COX-1 expression reduction (%) (COX-1 [1]; Substantia nigra): 89% | COX-1 expression levels (COX-1 [2]; BV2 cells, 48 h of incubation with LPS, 1 h pre-treated): significantly reduced | COX-1 expression reduction (COX-1 [2]; LPS-activated BV2 cells, independently from its concentration (0.1 and 0.5 μM)): 78%
SMILES: COc1ccc(-c2noc(CC(=O)O)c2-c2ccc(OC)cc2)cc1 [mofezolac, 2-(3,4-bis(4-methoxyphenyl)isoxazol-5-yl)acetic acid]
p-IkBα (p-IkBα): significant reduction | COX-1 expression (COX-1 [1]; LPS challenged mice, all brain areas tested): significantly reduction of COX-1 expression | cell toxicity (BV2 microglial cells): No cell toxicity | PGE2 release reduction (%) (PGE2; Caudate): 67% | PGE2 release (ng/mg tissue) (PGE2; Caudate-Putamen): 1.84 + 0.035 ^d ng/mg tissue | PGE2 release (ng/mg tissue) (PGE2; Frontal lobe): 2.40 ± 0.046 ^d ng/mg tissue | PGE2 release reduction (%) (PGE2; Frontal lobe): 49% | PGE2 release (ng/mg tissue) (PGE2; Hippocampus): 2.33 ± 0.032 ^d ng/mg tissue | PGE2 release reduction (%) (PGE2; Hippocampus): 48% | PGE2 release (ng/mg tissue) (PGE2; Substantia nigra): 3.31 ± 0.079 ^d ng/mg tissue | PGE2 release reduction (%) (PGE2; Substantia nigra): 39%
